From the supplement of paper PMC10627819

What was measured:
[1] = system: S. pneumoniae D39V; assay: fitness (endpoint OD595 vs no drug) (fraction); higher = more growth
Procedure, shortened: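 Plates with 384 wells were inoculated at OD595 0.01 using 30 µl of TSB, LB Lennox or CY, or 55 µl for S. pneumoniae. Incubation was at 37 °C, with OD595 measured every 30 min for 14 h. Fitness is the stationary-phase transition optical density over the robust mean of no-drug control wells, after first-reading background subtraction; it is capped at 1.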

[2] = system: B. subtilis 168; assay: Bliss interaction score (quartile over a dose matrix) (fitness difference); higher = more antagonism (negative = synergy)
Procedure, shortened: (§1)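 Fitness was defined as normalised growth: OD595 at the start of stationary phase divided by the plate's robust no-drug mean and capped at 1. Single-drug fitness was inferred from combination measurements. The Bliss score is observed fitness minus the product of the single-drug values, summarised by quartiles across technical, biological and donor/recipient replicates.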

[3] = system: S. pneumoniae D39V; assay: as above
Procedure, shortened: as §1

[4] = system: S. aureus DSM 20231; assay: as above
Procedure, shortened: as §1

[5] = system: S. aureus Newman; assay: as above
Procedure, shortened: as §1
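Wherever Bliss interaction score (quartile over a dose matrix) is given: first quartile when negative (synergy) and third quartile when positive (antagonism).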

CCC[C@@H]1C[C@@H](C(=O)N[C@@H]([C@H]2O[C@H](SC)[C@H](O)[C@@H](O)[C@H]2O)[C@H](C)Cl)N(C)C1 [Clindamycin] + C[C@@H](O)[C@H]1C(=O)N2C(C(=O)O)=C(SCCNC=N)C[C@H]12 [Imipenem]
fitness, [1]
Settings | first compound 0.0125 µg/mL | first compound 0.015 µg/mL | first compound 0.025 µg/mL | first compound 0.03 µg/mL | first compound 0.05 µg/mL | first compound 0.06 µg/mL
partner 0.005 µg/mL | 0.753 | – | 0.5 | – | 0.213 | –
partner 0.0065 µg/mL | – | 0.843 | – | 0.628 | – | 0.176
partner 0.01 µg/mL | 0.763 | – | 0.486 | – | 0.202 | –
partner 0.013 µg/mL | – | 0.877 | – | 0.744 | – | 0.46
partner 0.02 µg/mL | 0.758 | – | 0.468 | – | 0.19 | –
partner 0.026 µg/mL | – | 0.824 | – | 0.644 | – | 0.299

Settings | Bliss interaction score
[2] | 0.159
[3] | -0.0804
[4] | 0.0276
[5] | -0.0198

CCC[C@@H]1C[C@@H](C(=O)N[C@@H]([C@H]2O[C@H](SC)[C@H](O)[C@@H](O)[C@H]2O)[C@H](C)Cl)N(C)C1 [Clindamycin] + Clc1ccc(COC(Cn2ccnc2)c2ccc(Cl)cc2Cl)c(Cl)c1 [Miconazole]
[1]
Settings | fitness
first compound 0.0125 µg/mL, partner 1.25 µg/mL | 0.688
first compound 0.0125 µg/mL, partner 2.5 µg/mL | 0.758
first compound 0.0125 µg/mL, partner 5 µg/mL | 0.761
first compound 0.015 µg/mL, partner 1.073 µg/mL | 0.944
first compound 0.015 µg/mL, partner 2.145 µg/mL | 0.945
first compound 0.015 µg/mL, partner 4.29 µg/mL | 0.906
first compound 0.025 µg/mL, partner 1.25 µg/mL | 0.433
first compound 0.025 µg/mL, partner 2.5 µg/mL | 0.485
first compound 0.025 µg/mL, partner 5 µg/mL | 0.444
first compound 0.03 µg/mL, partner 1.073 µg/mL | 0.772
first compound 0.03 µg/mL, partner 2.145 µg/mL | 0.777
first compound 0.03 µg/mL, partner 4.29 µg/mL | 0.665
first compound 0.05 µg/mL, partner 1.25 µg/mL | 0.213
first compound 0.05 µg/mL, partner 2.5 µg/mL | 0.235
first compound 0.05 µg/mL, partner 5 µg/mL | 0.252
first compound 0.06 µg/mL, partner 4.29 µg/mL | 0.33

Settings | Bliss interaction score
[2] | 0.0322
[3] | -0.0991
[4] | -0.0342
[5] | -0.0596

CCC[C@@H]1C[C@@H](C(=O)N[C@@H]([C@H]2O[C@H](SC)[C@H](O)[C@@H](O)[C@H]2O)[C@H](C)Cl)N(C)C1 [Clindamycin] + O=C1CN(/N=C/c2ccc([N+](=O)[O-])o2)C(=O)N1 [Nitrofurantoin]
fitness, [1]
Settings | first compound 0.0125 µg/mL | first compound 0.015 µg/mL | first compound 0.025 µg/mL | first compound 0.03 µg/mL | first compound 0.05 µg/mL | first compound 0.06 µg/mL
partner 1.285 µg/mL | – | 0.848 | – | 0.692 | – | 0.51
partner 2 µg/mL | 0.583 | – | 0.302 | – | 0.0691 | –
partner 2.57 µg/mL | – | 0.886 | – | 0.708 | – | 0.445
partner 4 µg/mL | 0.503 | – | 0.224 | – | 0.0581 | –
partner 8 µg/mL | 0.339 | – | 0.126 | – | 0.0351 | –

[1], partner 5.14 µg/mL, one replicate
Settings | fitness
first compound 0.015 µg/mL | 0.809
first compound 0.03 µg/mL | 0.685
first compound 0.06 µg/mL | 0.319

Settings | Bliss interaction score
[2] | -0.113
[3] | -0.173
[4] | -0.0327
[5] | -0.127

O=C(O[C@@H]1Cc2c(O)cc(O)cc2O[C@@H]1c1cc(O)c(O)c(O)c1)c1cc(O)c(O)c(O)c1 [EGCG] + CO[C@H]1/C=C/O[C@@]2(C)Oc3c(C)c(O)c4c(O)c(c(/C=N/N5CCN(C)CC5)c(O)c4c3C2=O)NC(=O)/C(C)=C\C=C\[C@H](C)[C@H](O)[C@@H](C)[C@@H](O)[C@@H](C)[C@H](OC(C)=O)[C@@H]1C [Rifampicin]
fitness, [1]
Settings | first compound 12.5 µg/mL | first compound 25 µg/mL | first compound 50 µg/mL
partner 0.025 µg/mL | 0.923 | 0.925 | ≥ 1
partner 0.05 µg/mL | 0.931 | – | 0.942
partner 0.1 µg/mL | – | – | 0.496

[1], partner 0.2 µg/mL, one replicate
Settings | fitness
first compound 12.5 µg/mL | 0
first compound 25 µg/mL | 0
first compound 50 µg/mL | 0

Settings | Bliss interaction score
[2] | 0.0434
[3] | -0.0502
[4] | -0.0623
[5] | -0.0254

O=C(O[C@@H]1Cc2c(O)cc(O)cc2O[C@@H]1c1cc(O)c(O)c(O)c1)c1cc(O)c(O)c(O)c1 [EGCG] + C[C@@H](O)[C@H]1C(=O)N2C(C(=O)O)=C(SCCNC=N)C[C@H]12 [Imipenem]
fitness, [1]
Settings | partner 0.005 µg/mL | partner 0.0065 µg/mL | partner 0.01 µg/mL | partner 0.013 µg/mL | partner 0.02 µg/mL | partner 0.026 µg/mL
first compound 12.5 µg/mL | 0.952 | 0.863 | 0.875 | 0.78 | 0.9 | 0.563
first compound 25 µg/mL | 0.985 | 0.833 | 0.971 | 0.959 | 0.842 | –
first compound 50 µg/mL | 0.912 | 0.896 | 0.939 | 0.799 | ≥ 1 | 0.899

Settings | Bliss interaction score
[2] | 0.185
[3] | 0.0607
[4] | -0.0357
[5] | 0.0318

O=C(O[C@@H]1Cc2c(O)cc(O)cc2O[C@@H]1c1cc(O)c(O)c(O)c1)c1cc(O)c(O)c(O)c1 [EGCG] + Clc1ccc(COC(Cn2ccnc2)c2ccc(Cl)cc2Cl)c(Cl)c1 [Miconazole]
fitness, [1]
Settings | partner 1.073 µg/mL | partner 1.25 µg/mL | partner 2.145 µg/mL | partner 2.5 µg/mL | partner 4.29 µg/mL | partner 5 µg/mL
first compound 12.5 µg/mL | 0.956 | 0.913 | ≥ 1 | 0.805 | 0.824 | 0.858
first compound 25 µg/mL | 0.983 | ≥ 1 | ≥ 1 | 0.923 | 0.834 | 0.89
first compound 50 µg/mL | 0.987 | 0.952 | 0.984 | 0.86 | 0.98 | 0.933

Settings | Bliss interaction score
[2] | -0.0649
[3] | 0.0773
[4] | 0.278
[5] | 0.167
